The first assay relates to Male NMRI (SPF) mice fed a low-iron diet. In words: Fe utilization in iron-deficient mouse model. Format: in vivo. The following applies: male NMRI mice on low-iron diet (approx. 5 ppm iron); 2 mg iron/kg body weight/day by stomach tube, days 1-5 and 8-12; utilization on day 15 calculated from hemoglobin and body weight increase versus control group. The protocol: The excellent Fe utilizations that can be accomplished through the Fe complexes according to the invention were measured by means of the following mouse model.
Male NMRI (SPF) mice (approximately 3 weeks old) were fed a low-iron diet (approx. 5 ppm iron) for approximately 3 weeks. The iron complexes were then administered to them by means of a stomach tube (2 mg iron/kg body weight/day) for 2 times 5 days, with an interruption of 2 days (days 1-5 and 8-12). Utilization on day 15 was calculated from the hemoglobin increase and the body weight increase in accordance with the formula
[formula] • 0.07=Factor for 70 ml blood per kg body weight (BW) • 0.0034=Factor for 0.0034 g Fe/g Hb • Hb1=Hemoglobin level (g/I) on day 1 • Hb2(3)=Hemoglobin level (g/I) on day 8 (or 15) • BW4=body weight (g) on day 1 • BW9(14)=body weight (g) on day 8 (or 15) • Hb1 Control=average hemoglobin level (g/I) on day 1 in the control group, • Hb2(3) Control=average hemoglobin level (g/I) on day 8 (or 15) in the control group, • BW4 Control=average body weight (g) on day 1 in the control group, • BW9(14) Control=average body weight (g) on day 8 (or 15) in the control group, • Fe Dos.=entire administered iron (mg Fe) over 5 or 10 days, • Fe ut.=(Hb2(3)*BW9(14)-Hb1*BW4)*0.07*0.0034 (mg Fe) Δ Utilization=Fe tot. utilized (examined group)—Fe ut. Control group, utilized from food, (mg Fe)
For the substance “Tris-(N-(3-hydroxypropyl)-N-methyl-3-oxobutanamide)-iron(III)-complex [Example 54]”, the “Utilization n 15 d (abs. %)” value is 76 abs. %.

As to “Tris-(N-(4-hydroxybutyl)-3-oxobutanamide)-iron(III)-complex [Example 39]”, the “Utilization n 15 d (abs. %)” value is recorded as 66 abs. %.

For “Tris-(N-(morpholin-4-yl)-3-oxobutanamide)-iron(III)-complex [Example 60]”, the “Utilization n 15 d (abs. %)” value is on record as 80 abs. %.

In the case of “Tris-(N-(trans-4-hydroxycyclohexyl)-3-oxobutanamide)-iron(III)-complex [Example 55]”, the “Utilization n 15 d (abs. %)” value is 84 abs. %.

“Tris-(N-Butyl-3-oxoheptanamide)-iron(III)-complex [Example 63]”: the “Utilization n 15 d (abs. %)” value is 71 abs. %.

As to “Tris-(N-Cyclopropyl-3-oxobutanamide)-iron(III)-complex [Example 35]”, the “Utilization n 15 d (abs. %)” value is 44 abs. %.

In the case of “Tris-(N-butyl-N-methyl-3-oxobutaneamide)-iron(ill) Complex [Example 13]”, the “Utilization n 15 d (abs. %)” value is given as 71 abs. %.

Consider “Tris-(N-hexyl-3-oxobutaneamide)-iron(III) Complex [Example 16]”, for which the “Utilization n 15 d (abs. %)” value is 60 abs. %.

Consider “Tris-(N-methyl-3-oxobutaneamide)-iron(III) Complex [Example 4]”, for which the “Utilization n 15 d (abs. %)” value is 90 abs. %.

As to “Tris-(ethyl 4-(dimethylamino)-2,4-dioxobutanoate)-iron(III)-complex [Example 32]”, the “Utilization n 15 d (abs. %)” value was 81 abs. %.

In the case of “Tris-(ethyl N-(3-oxobutanoyl)glycinate)-iron(l) complex (Tris((3-Oxo-butyrylamino)ethyl acetate)iron) [Example 20]”, the “Utilization n 15 d (abs. %)” value was 77 abs. %.

Still in this assay, the particulars now being: mouse, in vivo.
On to “Tris-(N-(5-hydroxypentyl)-3-oxobutanamide)-iron(III)-complex [Example 40]”, for which the “Utilization n 15 d (abs. %)” value worked out at 87 abs. %.

Source of the values: patent US9943498B2, “Fe(III) complex compounds for the treatment and prophylaxis of iron deficiency symptoms and iron deficiency anemias” (Vifor (International) AG, priority 2010, dated 2018).
